The term IC50 denotes the concentration needed to halve the response being measured. As a reminder, the inhibition is the drop in the measured response relative to a control, in per cent.

The source of these data is article PMC5242521 (PLoS ONE, 2017).

Where two headings read alike, the source gives them in different places.

Data set [1] concerns the target P-gp (Homo sapiens, UniProt P08183). The data set can be described thus: P-gp activity: rhodamine 123 accumulation in MCF7R cells. The settings on record: for inhibition at 100 μM: human, pH 7.4. As for the experimental part:
The effects of pyrethroids on activity of ABC and SLC transporters were determined through measuring cellular accumulation or retention of fluorescent or radiolabeled reference substrates for transporters, in the presence or absence of reference inhibitors, as previously described. The nature of cells and reference substrates and inhibitors used for transport assays are summarized in S3 Table.
For accumulation assays (performed for all transporters, excepted BCRP), transporter-expressing cells usually cultured in 48-well plates were first incubated at 37°C with reference substrates in the absence (control) or presence of pyrethroids or reference inhibitors, in a well-defined transport assay medium, consisting of 136 mM NaCl, 5.3 mM KCl, 1.1mM KH2PO4, 0.8 mM MgSO4, 1.8 mM CaCl2, 10 mM HEPES, 11 mM D-glucose and adjusted to pH = 7.4 (excepted for MATE transporter assays, for which pH was set to 8.4). The nature of substrates and reference inhibitors and the incubation times with substrates, that varied according to the transporter, were selected in agreement with previous studies and are indicated in S3 Table. The total incubation volume with substrates was 200 μL/well. After washing twice in phosphate-buffered saline (PBS) (200 μL/well/washing), cells were lysed in distilled water (155 μL/well). An aliquot of cell lysate (5 μL) was then taken for determining cellular protein content by the Bradford method. The rest of lysate (150 μL/well) was used for measuring intracellular accumulation of reference substrates by scintillation counting or spectrofluorimetry using a SpectraMax Gemini SX spectrofluorometer (Molecular Devices, Sunnyvale, CA, USA) (excitation and emission wavelengths were 485 and 535 nm, respectively, for rhodamine 123 and fluorescein, and 355 and 460 nm, respectively, for DAPI).
Intracellular concentrations of reference substrates were initially expressed as fluorescence arbitrary units (for fluorescent dye substrates) or as moles (for radiolabeled substrates) and normalized to cellular protein content, determined by the Bradford method. They were finally used for calculating percentage of transporter activity, according to the following equations [41, 45]: %ABCtransporter activity=([Substrateref inh]-[Substratepyrethroid])×100/([Substrateref inh]-[Substratecontrol]) (1) %SLC transporter activity=([Substratepyrethroid]-[Substratref inh])×100/([Substratecontrol]-[Substrateref inh]) (2) with [Substratepyrethroid] = cellular concentration of reference substrate in the presence of pyrethroid, [Substrateref inh] = cellular concentration of reference substrate in the presence of reference inhibitor and [Substratecontrol] = cellular concentration of reference substrate in control cells not exposed to pyrethroid or reference inhibitor.
The initial tested concentration of pyrethroids was 100 μM. […] Such concentrations were calculated using GraphPad Prism software (GraphPad Software, La Jolla, CA), through nonlinear regression based on the four parameter logistic function using the following equations: […]

The target in data set [2] is T1, OATP1B1 (Homo sapiens, UniProt Q9Y6L6).
T1 construct: expressed in transfected cells; host or cells: CHO
T1 sequence (Q9Y6L6 1-691): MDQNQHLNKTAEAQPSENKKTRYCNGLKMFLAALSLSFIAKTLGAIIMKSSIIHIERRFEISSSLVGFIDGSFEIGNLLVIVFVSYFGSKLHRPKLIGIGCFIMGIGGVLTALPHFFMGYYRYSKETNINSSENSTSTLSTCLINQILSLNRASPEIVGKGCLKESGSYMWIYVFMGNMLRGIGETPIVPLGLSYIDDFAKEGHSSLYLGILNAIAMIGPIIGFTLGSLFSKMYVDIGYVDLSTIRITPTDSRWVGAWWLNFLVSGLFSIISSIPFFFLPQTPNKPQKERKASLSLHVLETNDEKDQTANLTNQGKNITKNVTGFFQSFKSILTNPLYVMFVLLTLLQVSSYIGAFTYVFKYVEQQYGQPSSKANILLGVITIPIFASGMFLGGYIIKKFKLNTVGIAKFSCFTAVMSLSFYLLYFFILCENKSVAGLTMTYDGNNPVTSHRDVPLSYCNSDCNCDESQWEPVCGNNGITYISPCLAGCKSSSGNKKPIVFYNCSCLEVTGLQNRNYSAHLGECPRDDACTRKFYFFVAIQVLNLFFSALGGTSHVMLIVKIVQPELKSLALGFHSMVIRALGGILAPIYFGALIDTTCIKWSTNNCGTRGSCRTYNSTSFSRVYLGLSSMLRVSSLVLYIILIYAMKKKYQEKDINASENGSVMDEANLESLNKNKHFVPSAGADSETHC
The data set is described as follows: OATP1B1 activity: E3S accumulation in CHO-OATP1B1 cells. It is filed as cell-based. As to conditions: for inhibition at 100 μM: human, pH 7.4. As for the experimental part: The initial tested concentration of pyrethroids was 100 μM.

Data set [3] deals with T2, MATE2-K (Homo sapiens, UniProt Q86VL8).
T2 construct: expressed in transfected cells; host or cells: HEK293
The data set is described as follows: MATE2-K activity: TEA accumulation in HEK-MATE2-K cells. It is filed as cell-based.
Procedure: The effects of pyrethroids on activity of ABC and SLC transporters were determined through measuring cellular accumulation or retention of fluorescent or radiolabeled reference substrates for transporters, in the presence or absence of reference inhibitors, as previously described [41].
For accumulation assays (performed for all transporters, excepted BCRP), transporter-expressing cells usually cultured in 48-well plates were first incubated at 37°C with reference substrates in the absence (control) or presence of pyrethroids or reference inhibitors, in a well-defined transport assay medium [42], consisting of 136 mM NaCl, 5.3 mM KCl, 1.1mM KH2PO4, 0.8 mM MgSO4, 1.8 mM CaCl2, 10 mM HEPES, 11 mM D-glucose and adjusted to pH = 7.4 (excepted for MATE transporter assays, for which pH was set to 8.4). The nature of substrates and reference inhibitors and the incubation times with substrates, that varied according to the transporter, were selected in agreement with previous studies [41, 43] and are indicated in S3 Table. The total incubation volume with substrates was 200 μL/well. After washing twice in phosphate-buffered saline (PBS) (200 μL/well/washing), cells were lysed in distilled water (155 μL/well). An aliquot of cell lysate (5 μL) was then taken for determining cellular protein content by the Bradford method [44]. The rest of lysate (150 μL/well) was used for measuring intracellular accumulation of reference substrates by scintillation counting or spectrofluorimetry using a SpectraMax Gemini SX spectrofluorometer (Molecular Devices, Sunnyvale, CA, USA) (excitation and emission wavelengths were 485 and 535 nm, respectively, for rhodamine 123 and fluorescein, and 355 and 460 nm, respectively, for DAPI).
Intracellular concentrations of reference substrates were initially expressed as fluorescence arbitrary units (for fluorescent dye substrates) or as moles (for radiolabeled substrates) and normalized to cellular protein content, determined by the Bradford method [44]. […]

In data set [4] the target is T3, OCT1 (Homo sapiens, UniProt O15245).
T3 sequence (O15245 1-554): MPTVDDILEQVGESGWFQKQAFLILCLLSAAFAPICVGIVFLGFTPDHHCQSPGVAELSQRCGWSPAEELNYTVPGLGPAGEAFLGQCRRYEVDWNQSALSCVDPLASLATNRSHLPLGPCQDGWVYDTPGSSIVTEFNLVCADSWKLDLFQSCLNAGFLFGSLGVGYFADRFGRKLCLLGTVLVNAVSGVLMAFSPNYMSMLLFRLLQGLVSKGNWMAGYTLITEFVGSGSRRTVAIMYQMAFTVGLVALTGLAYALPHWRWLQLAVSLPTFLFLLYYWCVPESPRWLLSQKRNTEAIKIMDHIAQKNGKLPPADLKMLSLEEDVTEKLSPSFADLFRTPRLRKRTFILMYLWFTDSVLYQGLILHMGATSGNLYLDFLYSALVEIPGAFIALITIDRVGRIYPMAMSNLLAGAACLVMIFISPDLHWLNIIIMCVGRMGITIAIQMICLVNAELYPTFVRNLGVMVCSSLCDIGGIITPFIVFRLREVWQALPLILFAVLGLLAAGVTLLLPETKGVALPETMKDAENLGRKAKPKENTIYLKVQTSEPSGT
The data set is described as follows: Trans-stimulation assay of TEA uptake in OCT1-transfected HEK293 cells. Type of data set: cell-based. The settings on record: pre-loading 60 min with 100 μM pyrethroid or 2 mM unlabeled TEA; HEK-OCT1 cells. As for the experimental part: Trans-stimulation assays were performed as previously described. Briefly, OCT1-transfected HEK293 cells were first preloaded with 2 mM unlabeled TEA or 100 μM pyrethroid for 60 min at 37°c in the transport assay medium described above. After washing twice with PBS, cells were next re-incubated in transport assay medium containing 29 μM [1-^14C]-TEA for 5 min at 37°C. After washing twice with PBS, cells were lysed in distilled water and intracellular accumulation of [1-^14C]-TEA was then determined by scintillation counting.
Intracellular accumulation of TEA was then determined by scintillation counting. […] After washing, cells were next re-incubated with 29 μM [1-^14C]-TEA for 5 min at 37°C. Intracellular accumulation of [1-^14C]-TEA was then determined by scintillation counting.

P-gp, sequence (P08183 whole entry): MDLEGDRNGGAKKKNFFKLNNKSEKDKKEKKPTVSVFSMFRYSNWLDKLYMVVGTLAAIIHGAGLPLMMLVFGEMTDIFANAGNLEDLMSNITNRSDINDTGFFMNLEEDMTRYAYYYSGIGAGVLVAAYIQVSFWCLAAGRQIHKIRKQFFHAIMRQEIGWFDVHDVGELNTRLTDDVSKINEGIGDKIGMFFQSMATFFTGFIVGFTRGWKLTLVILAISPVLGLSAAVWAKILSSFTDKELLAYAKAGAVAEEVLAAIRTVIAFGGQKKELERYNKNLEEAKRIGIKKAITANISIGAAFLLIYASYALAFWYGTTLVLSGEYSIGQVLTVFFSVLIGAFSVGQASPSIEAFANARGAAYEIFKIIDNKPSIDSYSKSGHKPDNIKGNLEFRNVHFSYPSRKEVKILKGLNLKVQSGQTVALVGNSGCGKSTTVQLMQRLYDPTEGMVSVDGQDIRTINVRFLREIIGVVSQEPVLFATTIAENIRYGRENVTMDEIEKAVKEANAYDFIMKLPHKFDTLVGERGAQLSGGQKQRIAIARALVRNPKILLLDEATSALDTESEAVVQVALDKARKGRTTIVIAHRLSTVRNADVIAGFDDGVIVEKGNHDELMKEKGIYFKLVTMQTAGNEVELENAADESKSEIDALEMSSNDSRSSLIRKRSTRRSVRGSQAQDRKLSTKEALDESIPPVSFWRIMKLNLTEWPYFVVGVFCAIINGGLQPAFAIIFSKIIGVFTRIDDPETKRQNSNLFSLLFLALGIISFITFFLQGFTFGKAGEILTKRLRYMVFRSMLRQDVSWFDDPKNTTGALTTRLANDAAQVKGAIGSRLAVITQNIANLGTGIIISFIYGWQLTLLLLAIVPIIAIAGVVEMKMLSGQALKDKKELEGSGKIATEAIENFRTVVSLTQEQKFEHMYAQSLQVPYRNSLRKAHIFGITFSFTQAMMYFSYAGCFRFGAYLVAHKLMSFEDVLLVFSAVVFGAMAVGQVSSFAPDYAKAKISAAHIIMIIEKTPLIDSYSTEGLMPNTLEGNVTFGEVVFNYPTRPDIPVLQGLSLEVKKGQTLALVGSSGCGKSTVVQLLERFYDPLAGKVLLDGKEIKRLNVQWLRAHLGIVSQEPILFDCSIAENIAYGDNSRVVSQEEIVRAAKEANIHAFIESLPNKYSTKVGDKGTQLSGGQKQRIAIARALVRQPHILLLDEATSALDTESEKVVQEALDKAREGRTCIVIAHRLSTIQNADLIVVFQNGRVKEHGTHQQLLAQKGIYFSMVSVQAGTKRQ
T2 sequence (Q86VL8 1-566 isoform Q86VL8-3): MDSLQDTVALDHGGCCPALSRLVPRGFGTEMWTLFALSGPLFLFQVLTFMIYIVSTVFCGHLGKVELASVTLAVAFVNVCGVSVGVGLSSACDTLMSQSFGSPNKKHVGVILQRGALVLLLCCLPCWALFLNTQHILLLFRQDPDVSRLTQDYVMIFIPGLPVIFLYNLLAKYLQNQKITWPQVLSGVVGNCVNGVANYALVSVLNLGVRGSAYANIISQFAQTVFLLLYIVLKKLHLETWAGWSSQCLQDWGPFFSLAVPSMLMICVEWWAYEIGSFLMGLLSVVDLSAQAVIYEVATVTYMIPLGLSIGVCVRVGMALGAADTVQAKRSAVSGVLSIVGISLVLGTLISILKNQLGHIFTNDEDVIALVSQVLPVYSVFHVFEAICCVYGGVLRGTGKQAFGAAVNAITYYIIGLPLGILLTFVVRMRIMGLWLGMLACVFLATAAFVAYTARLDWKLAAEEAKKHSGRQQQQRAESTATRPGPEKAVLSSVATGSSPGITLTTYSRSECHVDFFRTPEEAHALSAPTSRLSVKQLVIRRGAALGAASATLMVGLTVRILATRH

Take `C=CCC1=C(C)C(OC(=O)C2C(C=C(C)C)C2(C)C)CC1=O` (centres unmarked) [allethrin]: the IC50 in data set [1] was > 100 µM; in data set [2], 16.5 µM. Moreover, the inhibition at 100 μM was 32.7% in data set [1] and > 85% in data set [2]. Moreover, the “effect on MATE2-K activity” value was “failed to alter” in data set [3] (pyrethroid up to 100 μM, HEK-MATE2-K cells, TEA) and “No effect (up to 100 μM)” in data set [3] (pyrethroid up to 100 μM, HEK-MATE2-K cells, TEA, listed as Allethrin). Further, the “effect of pre-loading on radiolabeled TEA uptake (trans-stimulation assay)” value in data set [4] is given as “trans-inhibition”.

Take `CC(C)=CC1C(C(=O)OCN2C(=O)C3=C(CCCC3)C2=O)C1(C)C` (centres unmarked) [tetramethrin]: the values for the IC50 in data set [1] and in data set [2] were > 100 µM and 5.7 µM, respectively. The inhibition at 100 μM in data set [1] was 24.5%; in data set [2] (pyrethroid 100 μM, CHO-OATP1B1 cells, E3S, read-out: inhibition of OATP1B1 activity), > 85%. Moreover, in data set [1] (pyrethroid 100 μM), the “effect on P-gp activity” value is recorded as “moderately inhibited”. Moreover, the “effect on MATE2-K activity” value in data set [3] is “No effect (up to 100 μM)”. Also, the “effect of pre-loading on radiolabeled TEA uptake (trans-stimulation assay)” value in data set [4] was “trans-inhibition”.
